In patent US12497396B2, “Nitrogen-containing heterocyclic derivatives, method therefor and application therefor as inhibitors of KRAS G12C for the treatment of cancers” (SHANGHAI HANSOH BIOMEDICAL CO., LTD., priority 2019, dated 2025):

Test system: human lung cancer NCI-H358 cell xenograft
Test: In vivo pharmacodynamics on human lung cancer NCI-H358 cell xenograft tumor model
Set-up: species or system BALB/c nude mice
Protocol: • BALB/c nude mice, 6-8 weeks old, female, purchased from Shanghai Xipuer-Bikai Experimental Animal Co., Ltd. 6.3.2 Cell Culture and Cell Suspension Preparation • 1) MiaPaca-2 cells were taken out from the cell bank and resuscitated with DMEM medium (DMEM+10% FBS), the resuscitated cells were placed in a cell culture flask (labeled with cell type, date, name of cultured person, etc.) and cultured in a CO2 incubator (incubator temperature was 37° C., CO2 concentration was 5%) (the method of resuscitating NCI-H358 cells was the same as MiaPaca-2 cells in test embodiment 5, and the culture medium was changed to RPMI-1640 medium). • 2) Passage was conducted every three to five days, and the cells was continued to be cultured in CO2 incubator after passage. The process was repeated until the cell count meets the in vivo pharmacodynamic requirements. • 3) MiaPaca-2 cells were collected and counted by automatic cell counter, according to the counting results, the cells were re-suspended with PBS and Matrigel (ratio was 1:1) to make cell suspension (cell density was 5×10^7/mL), then placed in a ice box for use (NCI-H358 cells were re-suspended with PBS without adding Matrigel, cell density was 1×10^8/mL). 6.3.3 Sample Preparation: • 1) Solvent: solvent (0.5% CMC-Na+1% Tween 80), storage condition: 4° C.
0.5 g of CMC-Na was weighted, dissolved in ddH2O, then 1.0 mL of Tween 80 was added and the mixture was stirred to mix well, and the volume was finally set to 100 mL. • 2) Compound to be tested (10 mg/kg) was prepared:
8.42 mg of AMG510 compound was weighted, 8.260 mL of solvent was added, a uniform solution was obtained by ultrasound, vortexing and stirring.
7.81 mg of embodiment compound 165-1 was weighted, 7.654 mL of solvent was added, a uniform solution was obtained by ultrasound, vortexing and stirring.
• 1) Before inoculation, nude mice were labeled with disposable universal ear tags of rats and mice; • 2) when inoculating, the cell suspension was mixed well, 0.1-1 mL cell suspension was extracted with a 1 mL syringe, bubbles were removed, and then the syringe was put on an ice bag for later use; • 3) the nude mice was held with left hand, the right back of nude mice near the right shoulder (inoculation site) was disinfected with 75% alcohol, and inoculation was started after 30 seconds; • 4) the experimental nude mice were inoculated in turn (each mouse was inoculated with 0.1 mL of cell suspension); 6.3.4 Tumor-Bearing Mouse were Measured, Grouped, and Administered: • 1) According to the tumor growth, the tumor was measured on the 18th day after inoculation, and the tumor size was calculated. tumor volume (mm^3)=length (mm)×width (mm)×width (mm)/2 Tumor volume calculation: • 2) The tumor-bearing mice were grouped according to their body weight and tumor size using a randomized grouping method. • 3) According to the grouping results, the administration of the test drug was started (administration method: oral administration; administration dose: 10 mg/kg; administration volume: 10 mL/kg; administration frequency: once a day; administration period: 21 days; solvents: 0.5% CMC/1% Tween 80). • 4) The tumor was measured and weighed twice a week after the test drug was started to be given. • 5) After the experiment, all animals were euthanized. • 6) Data was processed with software such as Excel. […]

C=CC(=O)N1C[C@H](C)N(c2nc(=O)n(-c3c(SC)ccnc3C(C)C)c3nc(-c4c(N)ccc(Cl)c4F)c(Cl)cc23)C[C@H]1C (single isomer, unassigned) [Embodiment 165-1]
TGI (%) Day 15 (Day 15, 10 mpk oral once a day): 67.41% | tumor volume (mm^3, Mean ± SD) Day 15 (Day 15, 10 mpk oral once a day): 267 ± 155 mm^3 | ΔT/ΔC(%) Day 15 (Day 15, 10 mpk oral once a day): 32.59% | tumor volume (mm^3, Mean ± SD) Day 0 (baseline Day 0, 10 mpk oral once a day): 203 ± 74 mm^3
